The text below walks through data of patent US20090270435A1 (priority 2006, published 2009).

Structures can show the parent of a compound that is named as a salt.

One test addresses T1, ACC1 from rat liver (Rattus norvegicus, UniProt P11497).
T1 construct: The livers (for ACC1 preparation) or skeletal muscle tissue (for ACC2 preparation) are removed; from tissue; host or cells: liver of male CD rats (fasted, then fed a high sucrose diet)
Put plainly: Direct inhibition of ACC1 activity (14C-bicarbonate incorporation). The note with it: ACC1 from rat liver. The test is classed as biochemical. The method in brief: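 ACC1 partially purified from livers of fasted/sucrose-refed male rats by PEG and ammonium sulfate fractionation, then preincubated 30 min at 37°C with 10 mM citrate and 1.0 mM MgCl2. Reaction ran 7 min at 37°C, stopped with HCl; acid-stable radioactivity counted by scintillation; HCl-first tubes served as blanks.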
For orientation: IC50 means the midpoint of a concentration-inhibition curve. For `Cc1cc2c(cc1C)C(=O)CC1(CCN(C(=O)c3cc(C)c4[nH]ncc4c3)CC1)O2` [Ex. A2, 6,7-dimethyl-1′-[(7-methyl-1H-indazol-5-yl)carbonyl]spiro-[chromene-2,4′-piperidin]-4(3H)-one trifluoroacetic acid salt], the concentration for half-maximal inhibition (IC50) was found to be 30.1 nM. `O=C1CC2(CCN(C(=O)c3ccc4nc[nH]c4c3)CC2)Oc2ccc(Cl)cc21` [Ex. L34] returned an IC50 above 1000 nM. For “1′-[(7-bromo-1H-indazol-6-yl)carbonyl]-6-chlorospiro[chromene-2,4′-piperidin]-4(3H)-one [Ex. G5]”, the IC50 was above 1000 nM.

In turn, `COc1ccc2c(c1)OC1(CCN(C(=O)c3cc(C)c4[nH]ncc4c3)CC1)CC2=O` [Ex. A24, 7-methoxy-1′-[(7-methyl-1H-indazol-5-yl)carbonyl]spiro[chromene-2,4′-piperidin]-4(3H)-one] registered an IC50 of 122 nM. That is a sub-micromolar value. Same read-out and setting: for `Cc1cc2c(cc1Cl)C(=O)CC1(CCN(C(=O)c3ccc4ocnc4c3)CC1)O2` [Ex. L46, 1′-(1,3-benzoxazol-5-ylcarbonyl)-6-chloro-7-methylspiro[chromene-2,4′-piperidin]-4(3H)-one] the value was 369 nM; for `Cc1cc2c(cc1C)C(=O)CC1(CCN(C(=O)c3ccc4nccnc4c3)CC1)O2` [Ex. L45, 6,7-dimethyl-1′-(quinoxalin-6-ylcarbonyl)spiro[chromene-2,4′-piperidin]-4(3H)-one], below 3000 nM. Take `COc1ccc2c(c1)C(=O)CC1(CCN(C(=O)c3cccc4cn[nH]c34)CC1)O2` [Ex. H7]: the IC50 was determined as 562 nM. Still for that read-out and setting: for `Cc1cc2c(cc1C)C(=O)CC1(CCN(C(=O)c3ccc4[nH]c5c(c4c3)CCNC5=O)CC1)O2` [Ex. K1, 6,7-dimethyl-1′-[(1-oxo-2,3,4,9-tetrahydro-1H-beta-carbolin-6-yl)carbonyl]spiro[chromene-2,4′-piperidin]-4(3H)-one] the value was 9.98 nM; for `COc1ccc2c(c1)OC1(CCN(C(=O)c3cccc4cn[nH]c34)CC1)CC2=O` [Ex. H21], 2530 nM.

In the case of `Cc1cc2c(cc1C)C(=O)CC1(CCN(C(=O)c3cc(Cl)c4[nH]ncc4c3)CC1)O2` [Ex. B1, 1′-[(7-chloro-1H-indazol-5-yl)carbonyl]-6,7-dimethylspiro[chromene-2,4′-piperidin]-4(3H)-one], the IC50 is 24.1 nM.

As for `COc1c(C(=O)N2CCC3(CC2)CC(=O)c2cc(C)c(C)cc2O3)cc(Cl)c2nc(C)[nH]c12` [Ex. L27, 1′-[(4-chloro-7-methoxy-2-methyl-1H-benzimidazol-6-yl)carbonyl]-6,7-dimethylspiro[chromene-2,4′-piperidin]-4(3H)-one], the IC50 was above 1000 nM. Still for that read-out and setting: in the case of `COC(=O)c1ccc2c(c1)C(=O)CC1(CCN(C(=O)c3ccc4c(C)n[nH]c4c3)CC1)O2` [Ex. F4, methyl 1′-[(3-methyl-1H-indazol-6-yl)carbonyl]-4-oxo-3,4-dihydrospiro[chromene-2,4′-piperidine]-6-carboxylate] it was 126 nM; in that of `CNC(=O)c1ccc2c(c1)C(=O)CC1(CCN(C(=O)c3cc(C)c4[nH]ncc4c3)CC1)O2` [Ex. A5, N-methyl-1′-[(7-methyl-1H-indazol-5-yl)carbonyl]-4-oxo-3,4-dihydrospiro[chromene-2,4′-piperidine]-6-carboxamide], 29.5 nM.

With `Cc1cc2c(cc1C)C(=O)CC1(CCN(C(=O)c3ccc4[nH]c(C(F)(F)F)nc4c3)CC1)O2` [Ex. L25, 6,7-dimethyl-1′-{[2-(trifluoromethyl)-1H-benzimidazol-5-yl]carbonyl}spiro[chromene-2,4′-piperidin]-4(3H)-one trifluoroacetic acid salt], half-maximal inhibition (IC50) was put at 613 nM. On the same count and under the same terms, in the case of `COC(=O)c1ccc2c(c1)C(=O)CC1(CCN(C(=O)c3cc(C)c4[nH]nc(C)c4c3)CC1)O2` [Ex. E4, methyl 1′-[(3,7-dimethyl-1H-indazol-5-yl)carbonyl]-4-oxo-3,4-dihydrospiro[chromene-2,4′-piperidine]-6-carboxylate] it was 54.3 nM; in that of `Cc1cc2c(cc1C)C(=O)CC1(CCN(C(=O)c3ccc4cn[nH]c4c3)CC1)O2` [Ex. G1, 1-(1H-indazol-6-ylcarbonyl)-6,7-dimethylspiro[chromene-2,4′-piperidin]-4(3H)-one trifluoroacetic acid salt], 271 nM; in that of `CCc1cc(C(=O)N2CCC3(CC2)CC(=O)c2cc(C(=O)OC)ccc2O3)cc2cn[nH]c12` [Ex. C5, methyl 1′-[(7-ethyl-1H-indazol-5-yl)carbonyl]-4-oxo-3,4-dihydrospiro[chromene-2,4′-piperidine]-6-carboxylate], 49.5 nM. On the same count and under the same terms, for `Cc1cc2c(cc1C)C(=O)CC1(CCN(C(=O)c3ccc4c(c3)CCC(=O)N4)CC1)O2` [L44, 6,7-dimethyl-1′-[(2-oxo-1,2,3,4-tetrahydroquinolin-6-yl)carbonyl]spiro[chromene-2,4′-piperidin]-4(3H)-one] the value was below 3000 nM.

The same test, now with this note: Table of Examples M1-M36.
In turn, `O=C1CC2(CCN(C(=O)c3cccc(-c4cc[nH]n4)c3)CC2)Oc2cc(Cl)c(F)cc21` [Ex. M36, 7-chloro-6-fluoro-1-[3-(1H-pyrazol-3-yl)benzoyl]spiro[chromene-2,4′-piperidin]-4(3H)-one] showed an IC50 of 1990 nM.

In turn, `COc1c(Cl)ccc2c1C(=O)CC1(CCN(C(=O)c3cccc(-c4cc[nH]n4)c3)CC1)O2` [Ex. M18, 6-chloro-5-methoxy-1′-[3-(1H-pyrazol-3-yl)benzoyl]spiro[chromene-2,4′-piperidin]-4(3H)-one] came in with an IC50 of 374 nM. Same read-out and setting: in the case of `COc1ccc2c(c1)C(=O)CC1(CCN(C(=O)c3cccc(-c4cc[nH]n4)c3)CC1)O2` [Ex. M6, 6-methoxy-1′-[3-(1H-pyrazol-3-yl)benzoyl]spiro[chromene-2,4′-piperidin]-4(3H)-one] it was 129 nM; in that of `CS(=O)(=O)c1ccc2c(c1)C(=O)CC1(CCN(C(=O)c3cccc(-c4cc[nH]n4)c3)CC1)O2` [M20, 6-(methylsulfonyl)-1′-[3-(1H-pyrazol-3-yl)benzoyl]spiro[chromene-2,4′-piperidin]-4(3H)-one], 434 nM.

Staying with this test, now noted: Table of Examples O1-O4.
The compound `O=C1CC2(CCN(C(=O)c3cccc(-c4ccn[nH]4)c3)CC2)Oc2ccccc21` [Ex. O1, 1′-[3-(1H-pyrazol-5-yl)benzoyl]spiro[chromene-2,4′-piperidin]-4(3H)-one] showed an IC50 of 916 nM. On the same count and under the same terms, for `COc1cc(Cl)cc2c1C(=O)CC1(CCN(C(=O)c3cccc(-c4ccn[nH]4)c3)CC1)O2` [Ex. O3, 7-chloro-5-methoxy-1′-[3-(1H-pyrazol-5-yl)benzoyl]spiro[chromene-2,4′-piperidin]-4(3H)-one] the value was 455 nM.

The test is the same for the next values; noted with them: Table of Examples P1-P15.
`CCOc1ccc(-c2cc[nH]n2)cc1C(=O)N1CCC2(CC1)CC(=O)c1cc(Cl)c(C)cc1O2` [Ex. P9, 6-chloro-1′-[2-ethoxy-5-(1H-pyrazol-3-yl)benzoyl]-7-methylspiro[chromene-2,4′-piperidin]-4(3H)-one] registered an IC50 of 1060 nM. The same measure, in the same setting: for `Cc1cc2c(cc1C)C(=O)CC1(CCN(C(=O)c3cc(-c4ccnn4C)ccc3Cl)CC1)O2` [Ex. P10, 1′-[2-chloro-5-(1-methyl-1H-pyrazol-5-yl)benzoyl]-6,7-dimethylspiro[chromene-2,4′-piperidin]-4(3H)-one] the value was below 3000 nM; for `CCc1nc(-c2cccc(C(=O)N3CCC4(CC3)CC(=O)c3cc(C)c(C)cc3O4)c2)no1` [Ex. P15, 6,7-Dimethyl-1′-[3-(5-ethyl-1,2,4-oxadiazol-3-yl)benzoyl]spiro[chromene-2,4′-piperidin]-4(3H)-one], 7030 nM.
